According to the supplement of paper PMC11208160:

Test: recombinant UMI read abundance after kanamycin selection (control-corrected) (log10(CPM+1)); higher = more efficient recombination; extreme values may be limits of the assay; sequences stand for … in AGTGCAGAGAAAATCGGCCAGTTTTCTCTGCCTGCAGTCCGCATGCCGTGGGACCCCTTGGGTTCTAACCTGTTGCCTAGATTTATGCAGCGGACTGCCTTTCTCCCAAAGTGATAAACCGG…AGGTTGGTTTCACT; site = the 11-nt donor
Outline: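 Each donor and donor-binding-loop pair was tracked by a 12-nt UMI on a plasmid carrying a promoterless kanamycin gene. With a second plasmid supplying a fixed target and T7-inducible IS621 bridge recombinase, the pool was plated in Escherichia coli on IPTG (0.07 mM) plus kanamycin or unselected. Sequencing of recombinant UMIs across the donor–target junction gave counts expressed as log10(CPM+1) after replicate averaging and control-derived scaling.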
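Also: IS621 bridge recombinase in Escherichia coli cells against a fixed T5 target plasmid.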

| Sequence | recombinant UMI read abundance (log10) |
| --- | --- |
| CGACCGACATGGACCGGTTTTCCCGGTAATCCGTATTTGTT (site CGAGCGACTAA) | 0.00884 |
| CGACCGACATGGACCGGTTTTCCCGGTAATCCGTATTTGTT (site CGATCGACTAA) | 0.00843 |
| CGACGACCATGGACCGGTTTTCCCGGTAATCCGTATTTGGG (site CGAAGACCTCC) | 0.0167 |
| CGACGACCATGGACCGGTTTTCCCGGTAATCCGTATTTGGG (site CGACGACCTCC) | 0.0126 |
| CGACGACCATGGACCGGTTTTCCCGGTAATCCGTATTTGGG (site CGAGGACCTCC) | 0.0314 |
| CGACGACCATGGACCGGTTTTCCCGGTAATCCGTATTTGGG (site CGATGACCTCC) | 0.0338 |
| CGACGAGCATGGACCGGTTTTCCCGGTAATCCGTATTTGGG (site ACGTCGACTTT) | 0.00438 |
| CGACTGGCATGGACCGGTTTTCCCGGTAATCCGTATTTGTA (site CGACTGGCTTA) | 1.65 |
| CGAGATCCATGGACCGGTTTTCCCGGTAATCCGTATTTGTT (site CGAGATCCTAA) | 1.4 |
| CGAGATCCATGGACCGGTTTTCCCGGTAATCCGTATTTGTT (site CGGAATCCTAA) | 0 |
| CGAGCACCATGGACCGGTTTTCCCGGTAATCCGTATTTGGG (site CGAGAACCTCC) | 0.00342 |
| CGAGCACCATGGACCGGTTTTCCCGGTAATCCGTATTTGGG (site CGAGCACCTCC) | 0.0175 |
| CGAGCACCATGGACCGGTTTTCCCGGTAATCCGTATTTGGG (site CGAGGACCTCC) | 0.0108 |
| CGAGCACCATGGACCGGTTTTCCCGGTAATCCGTATTTGGG (site CGAGTACCTCC) | 0.0136 |
| CGAGCAGCATGGACCGGTTTTCCCGGTAATCCGTATTTGCC (site CGAGCAGCTGG) | 2.69 |
| CGAGCATCATGGACCGGTTTTCCCGGTAATCCGTATTTGGT (site CGAGCATCTAC) | 2.34 |
| CGAGCCTCATGGACCGGTTTTCCCGGTAATCCGTATTTGCG (site CGAGCCTCTCG) | 2.41 |
| CGAGCGACATGGACCGGTTTTCCCGGTAATCCGTATTTGAA (site CGAGCGACTTT) | 1.74 |
| CGAGCTTCATGGACCGGTTTTCCCGGTAATCCGTATTTGCT (site CGAGCTTCTAG) | 1.85 |
| CGAGCTTCATGGACCGGTTTTCCCGGTAATCCGTATTTGCT (site CGATCATCTAG) | 0 |
| CGAGGGACATGGACCGGTTTTCCCGGTAATCCGTATTTGTC (site CGAGGGACTGA) | 2.59 |
| CGAGTACCATGGACCGGTTTTCCCGGTAATCCGTATTTGAC (site CGAGTACCTGT) | 0 |
| CGAGTACCATGGACCGGTTTTCCCGGTAATCCGTATTTGAC (site CTAGTATCTGT) | 0 |
| CGAGTATCATGGACCGGTTTTCCCGGTAATCCGTATTTGAC (site CAAGTATCTGT) | 2.57 |
| CGAGTATCATGGACCGGTTTTCCCGGTAATCCGTATTTGAC (site CCAGTATCTGT) | 1.99 |

| Sequence | recombinant UMI read abundance (log10) |
| --- | --- |
| CGAGTATCATGGACCGGTTTTCCCGGTAATCCGTATTTGAC (site CGAGTATCTGT) | 3.24 |
| CGAGTATCATGGACCGGTTTTCCCGGTAATCCGTATTTGAC (site CTAGTATCTGT) | 2.01 |
| CGAGTATCATGGACCGGTTTTCCCGGTAATCCGTATTTGCT (site CGAGTATCTAG) | 2.71 |
| CGAGTATCATGGACCGGTTTTCCCGGTAATCCGTATTTGCT (site CGATCATCTAG) | 0 |
| CGAGTGGCATGGACCGGTTTTCCCGGTAATCCGTATTTGGT (site AGAGTGGCTAC) | 0.574 |
| CGAGTGGCATGGACCGGTTTTCCCGGTAATCCGTATTTGGT (site CGAGTGGCTAC) | 1.1 |
| CGAGTGGCATGGACCGGTTTTCCCGGTAATCCGTATTTGGT (site GGAGTGGCTAC) | 0.0253 |
| CGAGTGGCATGGACCGGTTTTCCCGGTAATCCGTATTTGGT (site TGAGTGGCTAC) | 0.0187 |
| CGAGTGTCATGGACCGGTTTTCCCGGTAATCCGTATTTGAC (site CGAGTGTCTGT) | 2.13 |
| CGAGTGTCATGGACCGGTTTTCCCGGTAATCCGTATTTGAC (site CTAGTATCTGT) | 0.545 |
| CGATAAACATGGACCGGTTTTCCCGGTAATCCGTATTTGCG (site CGATAAACTCG) | 2.63 |
| CGATAATCATGGACCGGTTTTCCCGGTAATCCGTATTTGCT (site CGATAATCTAG) | 2.99 |
| CGATAATCATGGACCGGTTTTCCCGGTAATCCGTATTTGCT (site CGATCATCTAG) | 0 |
| CGATAATCATGGACCGGTTTTCCCGGTAATCCGTATTTGCT (site CGATGATCTAG) | 0 |
| CGATAATCATGGACCGGTTTTCCCGGTAATCCGTATTTGCT (site CGATTATCTAG) | 0.415 |
| CGATAGACATGGACCGGTTTTCCCGGTAATCCGTATTTGAG (site CGATAGACTCT) | 2.32 |
| CGATAGACATGGACCGGTTTTCCCGGTAATCCGTATTTGAG (site CGCTAGACTCT) | 0.00552 |
| CGATAGACATGGACCGGTTTTCCCGGTAATCCGTATTTGAG (site CGGTAGACTCT) | 0.902 |
| CGATAGACATGGACCGGTTTTCCCGGTAATCCGTATTTGAG (site CGTTAGACTCT) | 0.979 |
| CGATAGACATGGACCGGTTTTCCCGGTAATCCGTATTTGTT (site CGATAGACTAA) | 2 |
| CGATAGACATGGACCGGTTTTCCCGGTAATCCGTATTTGTT (site CGATCGACTAA) | 0.04 |
| CGATAGACATGGACCGGTTTTCCCGGTAATCCGTATTTGTT (site CGATGGACTAA) | 0.0144 |
| CGATAGACATGGACCGGTTTTCCCGGTAATCCGTATTTGTT (site CGATTGACTAA) | 0.00602 |
| CGATCAACATGGACCGGTTTTCCCGGTAATCCGTATTTGCT (site CGATCAACTAG) | 2.27 |
| CGATCAACATGGACCGGTTTTCCCGGTAATCCGTATTTGCT (site CGATCACCTAG) | 0 |

| Sequence | recombinant UMI read abundance (log10) |
| --- | --- |
| CGATCAACATGGACCGGTTTTCCCGGTAATCCGTATTTGCT (site CGATCAGCTAG) | 0 |
| CGATCAACATGGACCGGTTTTCCCGGTAATCCGTATTTGCT (site CGATCATCTAG) | 0 |
| CGATCATCATGGACCGGTTTTCCCGGTAATCCGTATTTGAT (site CGATCATCTAA) | 0 |
| CGATCATCATGGACCGGTTTTCCCGGTAATCCGTATTTGAT (site CGATCATCTAC) | 0.213 |
| CGATCATCATGGACCGGTTTTCCCGGTAATCCGTATTTGAT (site CGATCATCTAG) | 0 |
| CGATCATCATGGACCGGTTTTCCCGGTAATCCGTATTTGAT (site CGATCATCTAT) | 0.727 |
| CGATCATCATGGACCGGTTTTCCCGGTAATCCGTATTTGCC (site CGATCATCTAG) | 0 |
| CGATCATCATGGACCGGTTTTCCCGGTAATCCGTATTTGCC (site CGATCATCTCG) | 0.00333 |
| CGATCATCATGGACCGGTTTTCCCGGTAATCCGTATTTGCC (site CGATCATCTGG) | 0 |
| CGATCATCATGGACCGGTTTTCCCGGTAATCCGTATTTGCC (site CGATCATCTTG) | 0 |
| CGATCATCATGGACCGGTTTTCCCGGTAATCCGTATTTGCG (site CGATCATCTAG) | 0 |
| CGATCATCATGGACCGGTTTTCCCGGTAATCCGTATTTGCG (site CGATCATCTCG) | 2.32 |
| CGATCATCATGGACCGGTTTTCCCGGTAATCCGTATTTGCG (site CGATCATCTGG) | 0 |
| CGATCATCATGGACCGGTTTTCCCGGTAATCCGTATTTGCG (site CGATCATCTTG) | 0.00387 |
| CGATCCCCATGGACCGGTTTTCCCGGTAATCCGTATTTGGG (site CGATCCCCTCC) | 0.00829 |
| CGATCCTCATGGACCGGTTTTCCCGGTAATCCGTATTTGGT (site CGATCATCTAG) | 0 |
| CGATCCTCATGGACCGGTTTTCCCGGTAATCCGTATTTGGT (site CGATCCTCTAC) | 1.74 |
| CGATCGACATGGACCGGTTTTCCCGGTAATCCGTATTTGGT (site CGATCGACTAA) | 0.276 |
| CGATCGACATGGACCGGTTTTCCCGGTAATCCGTATTTGGT (site CGATCGACTAC) | 0.733 |
| CGATCGACATGGACCGGTTTTCCCGGTAATCCGTATTTGGT (site CGATCGACTAG) | 0 |
| CGATCGACATGGACCGGTTTTCCCGGTAATCCGTATTTGGT (site CGATCGACTAT) | 1.46 |
| CGATCGACATGGACCGGTTTTCCCGGTAATCCGTATTTGTA (site CGATCGACTAA) | 0 |
| CGATCGACATGGACCGGTTTTCCCGGTAATCCGTATTTGTA (site CGATCGACTCA) | 0.0107 |
| CGATCGACATGGACCGGTTTTCCCGGTAATCCGTATTTGTA (site CGATCGACTGA) | 0 |
| CGATCGACATGGACCGGTTTTCCCGGTAATCCGTATTTGTA (site CGATCGACTTA) | 1.19 |
